Source: US20250382344A1, “Soluble GLP1/GIP/NPY2 Receptor Triple Agonists” (Boehringer Ingelheim International GmH, priority 2024, published 2025)
Like-named read-outs stand apart in the source and are kept apart here.

T1: hGIPR (Homo sapiens, UniProt P48546)
T1 construct: expressed in transfected cells; host or cells: CHO CRE-luciferase reporter cells
T1 sequence (P48546 22-466): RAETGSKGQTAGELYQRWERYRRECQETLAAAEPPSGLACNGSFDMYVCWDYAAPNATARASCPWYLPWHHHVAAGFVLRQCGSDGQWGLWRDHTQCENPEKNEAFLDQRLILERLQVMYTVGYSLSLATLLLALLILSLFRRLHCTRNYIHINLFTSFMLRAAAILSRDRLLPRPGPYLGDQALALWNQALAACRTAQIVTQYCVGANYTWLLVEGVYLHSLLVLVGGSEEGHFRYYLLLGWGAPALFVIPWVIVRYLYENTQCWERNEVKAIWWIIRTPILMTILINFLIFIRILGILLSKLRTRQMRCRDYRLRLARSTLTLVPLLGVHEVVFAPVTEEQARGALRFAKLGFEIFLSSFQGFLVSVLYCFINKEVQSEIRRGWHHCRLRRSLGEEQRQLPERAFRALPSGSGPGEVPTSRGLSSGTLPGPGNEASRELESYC

T2: hNPY2R (Homo sapiens, UniProt P49146)
T2 construct: expressed in transfected cells; host or cells: HEK-293 CRE-luciferase reporter cells
T2 sequence (P49146 1-381): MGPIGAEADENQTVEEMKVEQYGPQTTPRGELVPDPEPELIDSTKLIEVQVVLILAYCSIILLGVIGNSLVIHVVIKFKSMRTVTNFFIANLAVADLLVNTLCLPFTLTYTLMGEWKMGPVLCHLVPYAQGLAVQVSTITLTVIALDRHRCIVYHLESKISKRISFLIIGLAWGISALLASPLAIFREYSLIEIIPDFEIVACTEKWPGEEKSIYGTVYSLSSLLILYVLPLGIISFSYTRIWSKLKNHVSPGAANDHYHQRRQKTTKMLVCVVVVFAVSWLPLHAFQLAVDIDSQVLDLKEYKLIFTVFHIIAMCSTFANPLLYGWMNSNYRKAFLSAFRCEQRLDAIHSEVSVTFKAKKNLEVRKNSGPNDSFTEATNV

T3: human neuropeptide Y2 receptor (human, UniProt P49146 1-381)
T3 sequence (looked up): T2 sequence (P49146 1-381)

B1: Compound 176 (peptide)
peptide: YXEGTFTSDYSIXLEKQAQXAFVRHLINKXTRQRY
modifications: Aib at positions 2, 13, 20 and 30; Lys 29 epsilon-amino group carries C20DA-gGlu-gGlu-gGlu-gGlu-gGlu; C-terminal amide

Key:
[1] = target: T4, hGLP1R (Homo sapiens, UniProt P43220); assay: hGLP1R CreLuc assay in 0.5% and 100% plasma (HEK-293 CRE-luciferase reporter cells); assay type: cell-based; settings: HEK-293 reporter cells
T4 construct: expressed in transfected cells; host or cells: HEK-293 CRE-luciferase reporter cells
T4 sequence (P43220 24-463): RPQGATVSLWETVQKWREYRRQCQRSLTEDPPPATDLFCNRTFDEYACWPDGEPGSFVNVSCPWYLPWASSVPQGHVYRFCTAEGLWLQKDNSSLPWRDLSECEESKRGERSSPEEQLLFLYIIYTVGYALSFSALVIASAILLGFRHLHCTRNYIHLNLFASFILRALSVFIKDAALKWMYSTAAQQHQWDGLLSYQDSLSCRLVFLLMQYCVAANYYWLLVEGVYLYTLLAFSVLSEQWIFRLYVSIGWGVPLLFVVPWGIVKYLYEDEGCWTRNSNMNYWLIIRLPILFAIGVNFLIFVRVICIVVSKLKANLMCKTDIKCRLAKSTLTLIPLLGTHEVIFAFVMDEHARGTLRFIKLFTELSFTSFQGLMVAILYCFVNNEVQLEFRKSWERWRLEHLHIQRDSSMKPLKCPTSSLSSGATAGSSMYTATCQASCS

[2] = target: T1, hGIPR; assay: hGIPR CreLuc assay in 0.5% and 100% plasma (CHO CRE-luciferase reporter cells); assay type: cell-based
[3] = target: T2, hNPY2R; assay: hNPY2R CreLuc assay in 0.5% and 100% plasma (HEK-293 CRE-luciferase reporter cells); assay type: cell-based; settings: HEK-293 reporter cells
[4] = Solubility in 0.1 M phosphate buffer at pH 7; assay type: physicochemical; settings: 0.1 M phosphate buffer at pH 7, 10 mg/mL final peptide concentration, shaking 2 hours at room temperature, peptides as TFA-salts; measured sample pH 6.5-7.0
[5] = Mouse PK after intravenous application; assay type: in vivo; settings: plasma, male NMRI mice, intravenous 30-60 nmol/kg, non-compartmental analysis
Method in brief: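 Male NMRI mice (30–40 g) dosed 30-60 nmol/kg by tail vein in 50 mM phosphate buffer pH 7.4/3.5% mannitol. Saphenous EDTA blood sampled from conscious animals up to 56 h; plasma peptide quantified by LC-MS. Parameters from non-compartmental analysis of individual profiles.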

[6] = test system: Normal NMRI Mice; assay: Effect on acute food intake in normal NMRI mice; assay type: in vivo; settings: male NMRI mice, single subcutaneous dose 100 nmol/kg, 24 hours food intake normalized to vehicle group
Method in brief: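 Male NMRI mice (n=8, ≥6 weeks), food locked 8 h before dark phase, given a single subcutaneous dose of peptide 1 h before lights-off. Food intake logged hourly over 24 h by automated HM2 monitoring; vehicle 50 mM phosphate pH 7.4 with 3.5% mannitol.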

[7] = target: T3, human neuropeptide Y2 receptor; assay: cell-based or functional assay
[8] = 100% human plasma, read-out: hGLP1R 100% hP
[9] = 0.5% human plasma, read-out: hNPY2R 0.5% hP
[10] = 0.5% human plasma, read-out: hGIPR 0.5% hP

Row | Molecule | EC50 [1, 8] [nM] | EC50 ([2]; 100% human plasma, read-out: hGIPR 100% hP) [nM] | EC50 [3, 9] [nM] | solubility at 2 h [4] [µg/mL] | MRT [5] [h] | Acute Food Intake 24 hours 100 nmol/kg [% CTL] [6] [% CTL] | EC50 ([1]; 0.5% human plasma, read-out: hGLP1R 0.5% hP) [nM] | EC50 [2, 10] [nM] | EC50 ([3]; 100% human plasma, read-out: hNPY2R 100% hP) [nM] | EC50, CreLuc luciferase reporter assay, hNPY2R 100% hP [7] [nM]
1 | CC[C@H](C)[C@H](NC(=O)[C@H](Cc1ccccc1)NC(=O)[C@H](C)NC(=O)C(C)(C)NC(=O)[C@H](CCC(N)=O)NC(=O)[C@H](C)NC(=O)[C@H](CCC(N)=O)NC(=O)[C@H](CCCCN)NC(=O)[C@H](CCC(=O)O)NC(=O)[C@H](CC(C)C)NC(=O)[C@](C)(CC(C)C)NC(=O)[C@@H](NC(=O)[C@H](CO)NC(=O)[C@H](Cc1ccc(O)cc1)NC(=O)[C@H](CC(=O)O)NC(=O)[C@H](CO)NC(=O)[C@@H](NC(=O)[C@H](Cc1ccccc1)NC(=O)[C@@H](NC(=O)CNC(=O)[C@H](CCC(=O)O)NC(=O)C(C)(C)NC(=O)[C@@H](N)Cc1ccc(O)cc1)[C@@H](C)O)[C@@H](C)O)[C@@H](C)CC)C(=O)N[C@@H](CCCNC(=N)N)C(=O)N[C@@H](Cc1c[nH]cn1)C(=O)N[C@@H](CC(C)C)C(=O)N[C@H](C(=O)N[C@@H](CC(N)=O)C(=O)N[C@@H](CCCCNC(=O)[C@@H](N)CCCCNC(=O)CC[C@H](NC(=O)CC[C@H](NC(=O)CC[C@H](NC(=O)CC[C@H](NC(=O)CC[C@H](NC(=O)CC[C@H](NC(=O)CCCCCCCCCCCCCCCCC(=O)O)C(=O)O)C(=O)O)C(=O)O)C(=O)O)C(=O)O)C(=O)O)C(=O)NC(C)(C)C(=O)N[C@H](C(=O)N[C@@H](CCCNC(=N)N)C(=O)N[C@@H](CCC(N)=O)C(=O)N[C@@H](CCCNC(=N)N)C(=O)N[C@@H](Cc1ccc(O)cc1)C(N)=O)[C@@H](C)O)[C@@H](C)CC [Compound 76, Y-Aib-E-G-T-F-T-S-D-Y-S-I-aMeL-L-E-K-Q-A-Q-Aib-A-F-I-R-H-L-I-N-K(1,3)-Aib-T-R-Q-R-Y-NH2.C18DA-gGlu-gGlu-gGlu-gGlu-gGlu-gGlu-eLys(1,2)] | 0.3 | 0.5 | 7.2 | 8900 | 6.7 | 55 |  |  |  | 
2 | CC[C@H](C)[C@H](NC(=O)[C@H](CC(C)C)NC(=O)[C@H](Cc1c[nH]cn1)NC(=O)[C@H](CCCNC(=N)N)NC(=O)[C@@H](NC(=O)[C@H](Cc1ccccc1)NC(=O)[C@H](C)NC(=O)C(C)(C)NC(=O)[C@H](CCC(N)=O)NC(=O)[C@H](C)NC(=O)[C@H](CCC(N)=O)NC(=O)[C@H](CCCCN)NC(=O)[C@H](CCC(=O)O)NC(=O)[C@H](CC(C)C)NC(=O)C(C)(C)NC(=O)[C@@H](NC(=O)[C@H](CO)NC(=O)[C@H](Cc1ccc(O)cc1)NC(=O)[C@H](CC(=O)O)NC(=O)[C@H](CO)NC(=O)[C@@H](NC(=O)[C@H](Cc1ccccc1)NC(=O)[C@@H](NC(=O)CNC(=O)[C@H](CCC(=O)O)NC(=O)C(C)(C)NC(=O)[C@@H](N)Cc1ccc(O)cc1)[C@@H](C)O)[C@@H](C)O)[C@@H](C)CC)C(C)C)C(=O)N[C@@H](CC(N)=O)C(=O)N[C@@H](CCCCNC(=O)[C@@H](N)CCCCNC(=O)CC[C@H](NC(=O)CC[C@H](NC(=O)CC[C@H](NC(=O)CC[C@H](NC(=O)CC[C@H](NC(=O)CC[C@H](NC(=O)CCCCCCCCCCCCCCCCC(=O)O)C(=O)O)C(=O)O)C(=O)O)C(=O)O)C(=O)O)C(=O)O)C(=O)NC(C)(C)C(=O)N[C@H](C(=O)N[C@@H](CCCNC(=N)N)C(=O)N[C@@H](CCC(N)=O)C(=O)N[C@@H](CCCNC(=N)N)C(=O)N[C@@H](Cc1ccc(O)cc1)C(N)=O)[C@@H](C)O [Compound 92, Y-Aib-E-G-T-F-T-S-D-Y-S-I-Aib-L-E-K-Q-A-Q-Aib-A-F-V-R-H-L-I-N-K(1,3)-Aib-T-R-Q-R-Y-NH2.C18DA-gGlu-gGlu-gGlu-gGlu-gGlu-gGlu-eLys(1,2)] | 2 |  | 9.9 | 6700 | 7.5 | 58 | 0.4 | 0.2 |  | 
3 | CC[C@H](C)[C@H](NC(=O)[C@H](CC(C)C)NC(=O)[C@H](Cc1c[nH]cn1)NC(=O)[C@H](CCCNC(=N)N)NC(=O)[C@@H](NC(=O)[C@H](Cc1ccccc1)NC(=O)[C@H](C)NC(=O)C(C)(C)NC(=O)[C@H](CCC(N)=O)NC(=O)[C@H](C)NC(=O)[C@H](CCC(N)=O)NC(=O)[C@H](CCCCN)NC(=O)[C@H](CCC(=O)O)NC(=O)[C@H](CC(C)C)NC(=O)C(C)(C)NC(=O)[C@@H](NC(=O)[C@H](CO)NC(=O)[C@H](Cc1ccc(O)cc1)NC(=O)[C@H](CC(=O)O)NC(=O)[C@H](CO)NC(=O)[C@@H](NC(=O)[C@H](Cc1ccccc1)NC(=O)[C@@H](NC(=O)CNC(=O)[C@H](CCC(=O)O)NC(=O)C(C)(C)NC(=O)[C@@H](N)Cc1ccc(O)cc1)[C@@H](C)O)[C@@H](C)O)[C@@H](C)CC)C(C)C)C(=O)N[C@@H](CC(N)=O)C(=O)N[C@@H](CCCCNC(=O)CCCCCNC(=O)CCCCCNC(=O)CC[C@H](NC(=O)CC[C@H](NC(=O)CC[C@H](NC(=O)CC[C@H](NC(=O)CC[C@H](NC(=O)CCCCCCCCCCCCCCCCCCC(=O)O)C(=O)O)C(=O)O)C(=O)O)C(=O)O)C(=O)O)C(=O)NC(C)(C)C(=O)N[C@H](C(=O)N[C@@H](CCCNC(=N)N)C(=O)N[C@@H](CCC(N)=O)C(=O)N[C@@H](CCCNC(=N)N)C(=O)N[C@@H](Cc1ccc(O)cc1)C(N)=O)[C@@H](C)O [Compound 106, Y-Aib-E-G-T-F-T-S-D-Y-S-I-Aib-L-E-K-Q-A-Q-Aib-A-F-V-R-H-L-I-N-K(1,3)-Aib-T-R-Q-R-Y-NH2.C20DA-gGlu-gGlu-gGlu-gGlu-gGlu-AHX-AHX(1,2)] |  |  | 7.1 | 9200 | 12.8 | 60 |  | 0.2 |  | 
4 | CC[C@H](C)[C@H](NC(=O)[C@H](CC(C)C)NC(=O)[C@H](Cc1c[nH]cn1)NC(=O)[C@H](CCCNC(=N)N)NC(=O)[C@@H](NC(=O)[C@H](Cc1ccccc1)NC(=O)[C@H](C)NC(=O)C(C)(C)NC(=O)[C@H](CCC(N)=O)NC(=O)[C@H](C)NC(=O)[C@H](CCC(N)=O)NC(=O)[C@H](CCCCN)NC(=O)[C@H](CCC(=O)O)NC(=O)[C@H](CC(C)C)NC(=O)C(C)(C)NC(=O)[C@@H](NC(=O)[C@H](CO)NC(=O)[C@H](Cc1ccc(O)cc1)NC(=O)[C@H](CC(=O)O)NC(=O)[C@H](CO)NC(=O)[C@@H](NC(=O)[C@H](Cc1ccccc1)NC(=O)[C@@H](NC(=O)CNC(=O)[C@H](CCC(=O)O)NC(=O)C(C)(C)NC(=O)[C@@H](N)Cc1ccc(O)cc1)[C@@H](C)O)[C@@H](C)O)[C@@H](C)CC)C(C)C)C(=O)N[C@@H](CC(N)=O)C(=O)N[C@@H](CCCCNC(=O)[C@@H](N)CCCCNC(=O)CC[C@H](NC(=O)CC[C@H](NC(=O)CC[C@H](NC(=O)CC[C@H](NC(=O)CC[C@H](NC(=O)CC[C@H](NC(=O)CCCCCCCCCCCCCCCCCCC(=O)O)C(=O)O)C(=O)O)C(=O)O)C(=O)O)C(=O)O)C(=O)O)C(=O)NC(C)(C)C(=O)N[C@H](C(=O)N[C@@H](CCCNC(=N)N)C(=O)N[C@@H](CCC(N)=O)C(=O)N[C@@H](CCCNC(=N)N)C(=O)N[C@@H](Cc1ccc(O)cc1)C(N)=O)[C@@H](C)O [Compound 125, Y-Aib-E-G-T-F-T-S-D-Y-S-I-Aib-L-E-K-Q-A-Q-Aib-A-F-V-R-H-L-I-N-K(1,3)-Aib-T-R-Q-R-Y-NH2.C20DA-gGlu-gGlu-gGlu-gGlu-gGlu-gGlu-eLys(1,2)] |  |  |  | 6700 | 21.2 | 55 |  | 0.4 | 60.8 | 
5 | B1 |  |  |  |  |  |  |  |  |  | 457
